From patent publication US10143691B2, “Pathogenic control of apoptosis” (CSIR, priority 2014, dated 2018)
Entries after “also recorded” stand apart in the source; their conditions may differ. Like-named read-outs stand apart in the source and are kept apart here.

Tests used:
Assay type in all cases: cell-based
[1] = tested on: Ghost(3) cells
Experimental: Apoptosis was measured in Ghost(3) cells 30 hours post-infection or drug treatment using the NucView™ 488 Caspase3 Assay Kit (Biotium) in a 96 well format. Data was analysed in MATLAB using a probabilistic region method to measure cell attachment and expressed as percentage cell survival. […] An average of 3000 cells per condition were analysed with the exception of cells treated with Doxorubicin followed by HIV-infection (FIG. 3), cells transfected with lincRNAp21 overexpression constructs followed by Doxorubicin treatment, and cells transfected with full-length lincRNAp21, infected with HIV1 and treated with Nutlin3 (FIG. 25). These latter conditions ( ? ) yielded too few attached cells (<20) at 30 hours for similar analysis.
Apoptosis was measured in Ghost(3) cells 30 hours post-infection or drug treatment using the NucView™ 488 Caspase-3 Assay Kit (Biotium) in a 96 well format. Data was analysed in MATLAB using a probabilistic region method to measure cell attachment and expressed as percentage cell survival. […] An average of 3000 cells per condition were analysed with the exception of cells treated with Doxorubicin followed by HIV-infection (FIG. 27), cells transfected with lincRNA-p21 overexpression constructs followed by Doxorubicin treatment (FIG. 36), and cells transfected with full-length lincRNA-p21, infected with HIV-1 and treated with Nutlin3 (FIG. 45). These latter conditions ( ? ) yielded too few attached cells (<20) at 30 hours for similar analysis.

[2] = tested on: hnRNP-K; test: Immunofluorescence of hnRNP-K cellular location in Ghost(3) cells
Experimental: (§1) For each experiment, Ghost(3) cells or IPSC-derived primary macrophages were infected or treated with 500 nM Doxorubicin on coverslips, fixed for 10 mins in fresh 4% paraformaldehyde at room temperature, then washed 3 times in PBS and permeabilised for 10 mins in ice-cold methanol at […]. Coverslips were washed once in PBS and incubated in blocking buffer (5% goat serum, 0.3% TritonX100 in PBS) for 60 mins at room temperature. Cells were incubated in primary antibody solution (1% BSA, 0.3% Triton X100 in PBS) overnight at 4° C. Double strand breaks were detected using rabbit polyclonal anti-phosphohistone H2A.X Ser139 (Cell Signaling). Activated ATM was detected using rabbit monoclonal anti-phosphoATM Ser1981 (Cell Signaling). The ability of p53 to regulate apoptosis was detected using rabbit polyclonal antiphosphop53 Ser46 (Cell Signaling). Viral p24 was detected using mouse monoclonal anti-HIV1p24 (AIDS Research and Reference Reagent Program, Division of AIDS, NIAID, NIH). HuR was detected using mouse monoclonal anti-HuR 3A2 (Santa Cruz Biotechnology). hnRNPK was detected using goat polyclonal anti-hnRNPK P20 (Santa Cruz Biotechnology). Coverslips were washed 3 times (5 mins each on an orbital shaker) with wash buffer (0.05% Tween20 in PBS), followed by incubation with secondary antibodies conjugated to either Atto550 or Atto565 or Atto647 for 60 mins at room temperature. Coverslips were washed 3 times (5 mins each on an orbital shaker) with wash buffer (0.05% Tween20 in PBS). Coverslips were incubated in equilibration buffer (0.4% glucose, 2×SCC) for 5 mins and counter stained with 1 mg/ml DAPI (4′,6-diamidino-2-phenylindole; Life Technologies). Coverslips were mounted in glox buffer (3.7 mg/ml glucose oxidase, 1 U catalase) and imaged.
For each experiment, cells were infected or treated with drugs on coverslips, fixed for 10 mins in fresh 4% paraformaldehyde at room temperature, then washed 3 times in PBS and permeabilised for 10 mins in ice-cold methanol at −20° C. Coverslips were washed once in PBS and incubated in blocking buffer (5% goat serum, 0.3% Triton-X100 in PBS) for 60 mins at room temperature. Cells were incubated in primary antibody solution (1% BSA, 0.3% Triton X-100 in PBS) overnight at 4° C. Double strand breaks were detected using rabbit polyclonal anti-phospho-histone H2A.X Ser139 (Cell Signaling). Activated ATM was detected using rabbit monoclonal anti-phospho-ATM Ser1981 (Cell Signaling). The ability of p53 to regulate apoptosis was detected using rabbit polyclonal anti-phospho-p53 Ser46 (Cell Signaling). Viral p24 was detected using mouse monoclonal anti-HIV-1-p24 (AIDS Research and Reference Reagent Program, Division of AIDS, NIAID, NIH). HuR was detected using mouse monoclonal anti-HuR 3A2 (Santa Cruz Biotechnology). hnRNP-K was detected using goat polyclonal anti-hnRNP-K P-20 (Santa Cruz Biotechnology). Coverslips were washed 3 times (5 mins each on an orbital shaker) with wash buffer (0.05% Tween-20 in PBS), followed by incubation with secondary antibodies conjugated to either Atto-550 or Atto-565 or Atto-647 for 60 mins at room temperature. Coverslips were washed 3 times (5 mins each on an orbital shaker) with wash buffer (0.05% Tween-20 in PBS). Coverslips were incubated in equilibration buffer (0.4% glucose, 2×SCC) for 5 mins and counter stained with 1 mg/ml DAPI (4′,6-diamidino-2-phenylindole; Life Technologies). Coverslips were mounted in glox buffer (3.7 mg/ml glucose oxidase, 1 U catalase) and imaged.

[3] = tested on: H2A.XpSer139; test: Immunofluorescence staining of double strand breaks (H2A.XpSer139)
Experimental: as §1
(§2) For each experiment, cells were infected or treated with drugs on coverslips, fixed for 10 mins in fresh 4% paraformaldehyde at room temperature, then washed 3 times in PBS and permeabilised for 10 mins in ice-cold methanol at −20° C. Coverslips were washed once in PBS and incubated in blocking buffer (5% goat serum, 0.3% Triton-X100 in PBS) for 60 mins at room temperature. […] Double strand breaks were detected using rabbit polyclonal anti-phospho-histone H2A.X Ser139 (Cell Signaling). Activated ATM was detected using rabbit monoclonal anti-phospho-ATM Ser1981 (Cell Signaling). The ability of p53 to regulate apoptosis was detected using rabbit polyclonal anti-phospho-p53 Ser46 (Cell Signaling). Viral p24 was detected using mouse monoclonal anti-HIV-1-p24 (AIDS Research and Reference Reagent Program, Division of AIDS, NIAID, NIH). HuR was detected using mouse monoclonal anti-HuR 3A2 (Santa Cruz Biotechnology). hnRNP-K was detected using goat polyclonal anti-hnRNP-K P-20 (Santa Cruz Biotechnology). […]

[4] = tested on: ATMpSer1981; test: Immunofluorescence staining of activated ATM (ATMpSer1981); conditions: Ghost(3) cells, Doxorubicin 500 nM, no HIV
Experimental: as §1, with “Coverslips were washed 3 times (5 mins each on an orbital shaker) with wash buffer (0.05% Tween20 in PBS). Coverslips were incubated in equilibration buffer (0.4% glucose, 2×SCC) for 5 mins and counter stained with 1 mg/ml DAPI (4′,6-diamidino-2-phenylindole; Life Technologies). Coverslips were mounted in glox buffer (3.7 mg/ml glucose oxidase, 1 U catalase) and imaged.” left out

[5] = tested on: hnRNP-K; test: Immunofluorescence of hnRNP-K cellular location in iPSC-derived macrophages; conditions: iPSC-derived (primary) macrophages, Doxorubicin-treated, no HIV
Experimental: as §1, with “Coverslips were washed 3 times (5 mins each on an orbital shaker) with wash buffer (0.05% Tween20 in PBS). Coverslips were incubated in equilibration buffer (0.4% glucose, 2×SCC) for 5 mins and counter stained with 1 mg/ml DAPI (4′,6-diamidino-2-phenylindole; Life Technologies). Coverslips were mounted in glox buffer (3.7 mg/ml glucose oxidase, 1 U catalase) and imaged.” left out

[6] = tested on: p53pSer46; test: Immunofluorescence staining of p53pSer46 apoptotic mark; conditions: Ghost(3) cells, Doxorubicin 500 nM, no HIV
Experimental: as §1, with “Coverslips were washed 3 times (5 mins each on an orbital shaker) with wash buffer (0.05% Tween20 in PBS). Coverslips were incubated in equilibration buffer (0.4% glucose, 2×SCC) for 5 mins and counter stained with 1 mg/ml DAPI (4′,6-diamidino-2-phenylindole; Life Technologies). Coverslips were mounted in glox buffer (3.7 mg/ml glucose oxidase, 1 U catalase) and imaged.” left out

[7] = tested on: HuR; test: Immunofluorescence of HuR cellular location in Ghost(3) cells; conditions: Ghost(3) cells, Doxorubicin-treated, no HIV
Experimental: as §1, with “Coverslips were washed 3 times (5 mins each on an orbital shaker) with wash buffer (0.05% Tween20 in PBS), followed by incubation with secondary antibodies conjugated to either Atto550 or Atto565 or Atto647 for 60 mins at room temperature. Coverslips were washed 3 times (5 mins each on an orbital shaker) with wash buffer (0.05% Tween20 in PBS). Coverslips were incubated in equilibration buffer (0.4% glucose, 2×SCC) for 5 mins and counter stained with 1 mg/ml DAPI (4′,6-diamidino-2-phenylindole; Life Technologies). Coverslips were mounted in glox buffer (3.7 mg/ml glucose oxidase, 1 U catalase) and imaged.” left out
as §2, with “C.” for “C. Coverslips were washed once in PBS and incubated in blocking buffer (5% goat serum, 0.3% Triton-X100 in PBS) for 60 mins at room temperature.”

[8] = Ghost(3) cells infected with HIV-1 24 hours prior to Doxorubicin treatment
[9] = uninfected Ghost(3) cells, lethal dose of Doxorubicin (500 nM)

In the case of COc1cccc2c1C(=O)c1c(O)c3c(c(O)c1C2=O)C[C@@](O)(C(=O)CO)C[C@@H]3O[C@H]1C[C@H](N)[C@H](O)[C@H](C)O1 [Doxorubicin], the percentage cell survival ([1]; Ghost(3) cells infected with HIV-1 24 hours before the same duration of Doxorubicin treatment) is reported as 60%, the apoptosis [1, 8] is reported as “do not undergo apoptosis” and the apoptosis ([1]; Ghost(3) cells that received Doxorubicin prior to HIV-1 infection) is reported as “underwent apoptosis; also recorded: do undergo apoptosis”. For the same molecule, the percentage cell survival ([1]; Ghost(3) cells, Doxorubicin only (lethal dose), no HIV) was 32%, the apoptosis ([1]; cells concurrently infected and treated with Maraviroc, Tenofovir or Raltegravir, Doxorubicin added 24 hours later) was “the cells underwent apoptosis” and the apoptosis [1, 9] was “apoptosis at 48 hours; also recorded: by 24 hours, cells were apoptotic; also recorded: followed by apoptosis”. For the same molecule, the “cellular location of hnRNP-K” value ([2]; Ghost(3) cells, drug only, no HIV infection) was “nuclear hnRNP-K within 2 hours; also recorded: detected in the nucleus of Doxorubicin-treated cells between 2 and 4 hours post-treatment; also recorded: nuclear hnRNPK within 2 hours”, the “cellular location of hnRNP-K” value ([2]; cells concurrently infected and treated with Maraviroc, Tenofovir or Raltegravir, Doxorubicin added afterwards) was “hnRNPK localized to the nucleus; also recorded: nuclear hnRNPK within 3 hours of chemical-induced DNA damage” and the “DSBs (H2A.XpSer139 staining)” value [3, 8] was “numerous DSBs”. The “DSBs (H2A.XpSer139 staining)” value ([3]; Ghost(3) cells infected with HIV-1 after exposure to Doxorubicin) was “extensive H2A.XpSer139 staining”, the “H2A.X (pSer139) staining of DSBs” value [3, 9] was “extensive H2A.X staining within 8 hours of treatment; also recorded: extensive H2A.XpSer139 staining” and the “phosphorylation of ATM at Ser1981” value [4] was “phosphorylation of both ATMpSer1981 and p53pSer46 in the nucleus within 8 hours; also recorded: Phosphorylated ATM is detected”. For the same molecule, the “cellular location of hnRNP-K” value [5] was “nuclear hnRNP-K within 8 hours; also recorded: nuclear hnRNPK within 8 hours”, the “phosphorylation of p53 at Ser46” value [6] was “phosphorylation of both ATMpSer1981 and p53pSer46 in the nucleus within 8 hours; also recorded: Activated p53 dimers are detected” and the “cellular location of HuR” value [7] was “cytoplasmic HuR within 8 hours; also recorded: moved from the nucleus into the cytoplasm within 8 hours of treatment”.
